Source: the OPERA property sets (Mansouri et al. 2018)
Residues, ends and D or L forms follow the SMILES beside them. *: point of attachment. Cbz = O=C(OCc1ccccc1)*

CCS(=O)(=O)c1cc(OC)c(OC)c(OC)c1
logP: 1.05

CC(C)(C)C1=Nc2ccc(Cl)cc2S(=O)(=O)N1
logP: 2.4

CCOP(=O)(OCC)Oc1ccc(SC)cc1C
logP: 3.21

CCCCCCCCCCCC[n+]1cc(C)cc(C)c1.[I-]
logP: 1.91

CN(C)N=Nc1ccc(C#N)cc1
logP: 2.39

CCOC(=O)C(=Cc1ccccc1OC)C(=O)OCC
logP: 3.29

O=C(CNC(=O)c1ccccc1)Oc1cccc(Cl)c1
logP: 3.21

Cc1ccc(C(C)C)c(OC2OC(CO)C(O)C(O)C2O)c1 (configuration not stated)
logP: 1.07

O=C(CNC(=O)c1ccccc1)Oc1cccc(F)c1
logP: 2.58

CN(C)/N=N/c1[nH]ncc1C(N)=O
logP: -0.12

OC(CN1CCCC1)c1ccccc1 (configuration not stated)
logP: 1.38

CCCCN(SN(C)C(=O)ON=C(C)SC)C(=O)OC
logP: 2.5

COc1cc(C=C[N+](=O)[O-])ccc1O
logP: 1.88

N#Cc1ccc(NS(=O)(=O)c2ccc(N)cc2)cc1
logP: 1.83

O=C1CN=C(c2ccc(C(F)(F)F)cc2)c2ccccc2N1
logP: 3.34

CC1CCC(C)N1N=O (configuration not stated)
logP: 0.86

CC1=CC(=O)N2C=CCCC2(C)N1 (configuration not stated)
logP: 0.69

COc1cc(C)c(Cc2cnc(N)nc2N)cc1OC
logP: 1.23

COc1ccc(N=NN(C)C(C)=O)cc1
logP: 2.61

CN(C)c1ccc2c(c1)C(=O)OC2(C)C
logP: 2.42

CC1(C)SC2C(NC(=O)C(NS(C)(=O)=O)c3ccccc3)C(=O)N2C1C(=O)O (configuration not stated)
logP: 0.95

CN(C)C(=O)c1cnc2ccccc2c1
logP: 0.99

CCOC(=O)c1ccc(Cl)nn1
logP: 0.12

COc1cccc(NS(=O)(=O)C(F)(F)F)c1
logP: 3.13

O=NN(CCCl)C(=O)NC1C=CCCC1 (configuration not stated)
logP: 2.45

CSC(C)=NOC(=O)N(C)SN(C)C(=O)c1cccc(C(F)(F)F)c1
logP: 2.5

COc1cc(OC)c(OC)cc1CC(C)N (configuration not stated)
logP: 1.74

Cc1cccc(NC(=O)CN2CCCCC2)c1
logP: 2.97

O=[N+]([O-])c1cnc(NC2=NCCN2CCO)s1
logP: 1.23

CCC1(CC)OC(=O)c2ccccc21
logP: 2.69

CSc1nc2nc(SC)[nH]c(Cl)c-2n1
logP: 0.63

COc1cn[nH]c1
logP: 0.37

COc1cc(C)n(-c2cc(C)nc(C)n2)n1
logP: 2.6

Cc1ccccc1C1=NCC(=O)Nc2ccc(Cl)cc21
logP: 3.12

COc1ccc(Cc2cnc(N)nc2N)cc1I
logP: 2.09

COc1cc(Cc2cnc(N)nc2N)cc(OC)c1O
logP: 0.37

CN(C)C(=O)Oc1ccc([N+](=O)[O-])cc1
logP: 1.5

CCCNc1c([N+](=O)[O-])cc(C(F)(F)F)cc1[N+](=O)[O-]
logP: 3.65

CCOC(=O)C(=Cc1ccc2c(c1)OCO2)C(C)=O
logP: 2.35

CC12CCC(=O)C=C1C1(CC1)CC1C2CCC2(C)C1CCC21CCC(=O)O1 (configuration not stated)
logP: 3.15

COc1cccc(N2C(=O)CCC2=O)c1
logP: 0.18

CSCN1C(=O)CN=C(c2ccccc2)c2cc(N)ccc21
logP: 1.92

S=C=NCc1cccc2ccccc12
logP: 4.42

N=C(N)NC(=O)Nc1ccc([N+](=O)[O-])c(Cl)c1
logP: 1.79

O=S(=O)(Nc1ccc(C(F)(F)F)cc1)C(F)(F)F
logP: 4.47

O=S1(=O)NC(C2CCC2)=Nc2ccc(Cl)cc21
logP: 2.24

CC1(C)N=C(N)N=C(N)N1c1cccc(C#N)c1
logP: -0.24

N#Cc1cc[n+]([O-])cc1
logP: -0.94

CC1=Nc2ccc(Br)cc2S(=O)(=O)N1
logP: 1.37

CN(C)c1ccc(N(C)C)nn1
logP: 0.99

O=[N+]([O-])c1cccc(C2NCCS2)c1 (configuration not stated)
logP: 1.59

NC(=O)COCc1ccco1
logP: -0.11

O=S(=O)(Nc1cccc(Br)c1)C(F)(F)F
logP: 3.82

CN(C)N=[N+]([O-])c1ccccc1
logP: 1.8

CN1C(=O)CN=C(c2c(Cl)cccc2Cl)c2cc(Cl)ccc21
logP: 3.04

O=C1CN=C(c2c(F)cccc2F)c2ccc(Cl)cc2N1
logP: 2.88

CCCCSC(C)(C)C(N)=O
logP: 1.81

CCOC(=O)CCCN1C(=O)C=CC1=O
logP: 0.67

O=C(NC(CO)C(O)c1ccc(Cl)cc1)C(Cl)Cl (configuration not stated)
logP: 1.64

CNC(=O)C1CCCN1C(C)=O (configuration not stated)
logP: -1.19

COc1cc(Cc2cnc(N)nc2N)cc(OC)c1N
logP: 0.83

O=C(O)COc1cccc(SC(F)(F)F)c1
logP: 2.86

CSc1nnc(CC(C)C)c(=O)n1N
logP: 1.39

CCCCCCCCCC[n+]1ccccc1.[Br-]
logP: -0.72

CCOC(=O)C(=Cc1ccccc1Cl)C(=O)OCC
logP: 3.15

O=S(=O)(Nc1cccc(F)c1)C(F)(F)F
logP: 3.42

O=[N+]([O-])c1cnc(N=C2SCCN2CCO)s1
logP: 1.28

O=NN1CCC(=O)CC1
logP: -0.47

COC(=O)C(C#N)=NNc1ccc(Cl)cc1C(F)(F)F
logP: 4.66

CCN1CCCCCC1=O
logP: 0.65

CSc1nncc(=O)n1N
logP: 0.38

CC(=O)CNc1ccccc1C(N)=O
logP: 0.61

CN(C)C(=O)Nc1cccc(O)c1
logP: 0.51

CC(=O)Nc1cc(OCC(=O)O)ccc1Cl
logP: 0.75

CCCCC1OC(=O)c2cc([N+](=O)[O-])ccc21 (configuration not stated)
logP: 2.92

CC(=O)Oc1ccccc1F
logP: 1.76

O=NN(CCF)C(=O)NCCCl
logP: 0.96

O=CNc1nccs1
logP: 0.54

FC(F)(F)c1nc2c(Br)c(Br)c(Br)cc2[nH]1
logP: 4.08

O=C(O)c1ccccc1Nc1cccc([N+](=O)[O-])c1
logP: 4.57

Cc1cc2c(cc1Cc1cnc(N)nc1N)OCO2
logP: 1.89

O=S(=O)(Nc1ccc(I)cc1)C(F)(F)F
logP: 4.39

CC(=O)OCC1=C(C(=O)O)N2C(=O)C(NC(=O)C(O)c3ccccc3)C2SC1 (configuration not stated)
logP: -0.44

Clc1ccccc1NC1=NCCN1
logP: 1.36

S=C=Nc1ccc2cc3ccccc3cc2c1
logP: 5.7

O=C(CNC(=O)c1ccccc1)Oc1ccc(F)cc1
logP: 2.46

CO[C@@]12[C@@H]3N[C@@H]3CN1C1=C(C(=O)C(Nc3nc(C)c(C)s3)=C(C)C1=O)[C@@H]2COC(N)=O
logP: 1.29

COc1cccc(/C=C/[N+](=O)[O-])c1
logP: 2.37

COc1ccc(Cc2cnc(N)nc2N)cc1C
logP: 1.91

OCC1OC(Sc2ccccc2)C(O)C(O)C1O (configuration not stated)
logP: -0.56

CCOC(=O)c1c(OC)cc(Cc2cnc(N)nc2N)cc1OC
logP: 1.25

C#CC(C)(C)N(C)C(C)C
logP: 2.29

O=[N+]([O-])c1nccn1CC(O)CCl (configuration not stated)
logP: 0.15

CC12CC3(C)CC(C)(C1)CC(N)(C2)C3
logP: 4.01

Clc1ccc(Cl)c(-c2cc(Cl)cc(Cl)c2Cl)c1
logP: 6.79

CC1(C)N=C(N)N=C(N)N1c1ccc(I)cc1
logP: 1.39

ClC1=CC(Cl)C(Cl)C(Cl)C1 (configuration not stated)
logP: 3.72

CCC(C)NP(=O)(OC)SC (configuration not stated)
logP: 0.95

COc1cccc(OC2OC(CO)C(O)C(O)C2O)c1 (configuration not stated)
logP: -0.52

COc1cc(C)nc2ccccc12
logP: 2.81

COn1c(=O)[nH]c(C)c(Br)c1=O
logP: -0.3

CON(C)C(=O)Nc1cccc(F)c1
logP: 1.68

OCC1C(Cl)C(Cl)C(Cl)C(Cl)C1Cl (configuration not stated)
logP: 2.94

COc1cc(Cc2cnc(N)nc2N)cc(O)c1O
logP: -0.31

CN(C)CCc1ccsc1
logP: 1.94

NNC(=O)c1ccccc1I
logP: 0.47

CCC(=O)c1ccc(OC(=O)NC)cc1
logP: 1.55

O=c1cc(-c2ccc([N+](=O)[O-])o2)sc(=O)[nH]1
logP: 0.55

O=[N+]([O-])c1cccc2c1c([N+](=O)[O-])cc[n+]2[O-]
logP: 0.95

O=C(c1ccncc1)c1ccc([N+](=O)[O-])cc1
logP: 1.76

Cc1ccc(OC2OC(CO)C(O)C(O)C2O)cc1 (configuration not stated)
logP: -0.16

Cc1ccccc1OC1OC(CO)C(O)C(O)C1O (configuration not stated)
logP: -0.16

COc1cc(Cc2cnc(N)nc2N)ccc1C(C)(C)O
logP: 1.38

O=C1CN=C(c2ccccc2[N+](=O)[O-])c2cc([N+](=O)[O-])ccc2N1
logP: 1.61

CC(C)C(NC(=O)C(Cc1ccccc1)NC(=O)OCc1ccccc1)C(=O)O (stereo not drawn) (Cbz-Phe-Val-OH; configuration not given here)
logP: 2.88

NC1CC2CC1c1cc(C(F)(F)F)ccc12 (configuration not stated)
logP: 3.19

CCCCCCCC[n+]1ccccc1C.[I-]
logP: -0.77

CCOc1ccccc1OC(=O)NC
logP: 1.24

CN1C(=O)OC(c2ccccc2)C1=O (configuration not stated)
logP: 1.06

CCN1C(=N)SC(=Cc2ccc([N+](=O)[O-])o2)C1=O
logP: 1.44

COc1ccc(N2C(N)=NC(N)=NC2(C)C)cc1
logP: 0.4

CCCCOc1cccc(N2C(N)=NC(N)=NC2(C)C)c1
logP: 2.03

CS(=O)(=O)N(c1ccccc1)S(C)(=O)=O
logP: 0.62

CCCCCCCCCCCCS(=O)(=O)[O-].[Na+]
logP: 0.96

c1ccc(O[Si]23OCCN(CCO2)CCO3)cc1
logP: -0.3

O=C(c1ccncc1)c1ccc(Cl)cc1
logP: 2.61

COc1cc(Cc2cnc(N)nc2N)cc(OCc2ccccc2)c1OCc1ccccc1
logP: 4.09

CCOC(=O)CCCCCN1C(=O)C=CC1=O
logP: 1.5

CC(=O)N(CCCl)c1ccc(CC(=O)O)cc1
logP: 1.2

O=C1CN=C(c2cccc(Br)c2)c2cc(Br)ccc2N1
logP: 3.88

Nc1nc(N)nc(-c2cc(F)ccc2Cl)n1
logP: 1.38

Nc1ccc(Cc2cnc(N)nc2N)cc1
logP: 0.22

CC(C)c1cccc(OC2OC(CO)C(O)C(O)C2O)c1 (configuration not stated)
logP: 0.65

CN(C)c1cccc(C(N)=O)c1
logP: 0.95

COc1cc(Cc2cnc(N)nc2N)cc(OC)c1SC
logP: 1.54

CCCSc1nnc(C(C)C)c(=O)n1N
logP: 2.12

CCCOn1c(=O)c(Br)c(C)n(C)c1=O
logP: 0.72
